Data published in patent publication US20070292908A1, “Method for Detecting Streptococcus Agalactiae Using Alpha-Glucosidase Activity” (BIOMERIEUX, priority 2004, published 2007).

Assays:
Streptococcus agalactiae [1] = assay: Detection of Streptococcus agalactiae strains on reaction media containing an α-glucosidase enzymatic substrate; assay type: cell-based; details: substrate 0.1 g/l; for intensity (I) of coloration: arbitrary scale 0 to 4
Experimental: The reaction media were prepared by mixing heart-brain extract (4.84 g/l; Solabia), meat infusion (1.96 g/l; Solabia), biothione (1 g/l; Solabia), biotrypcase (7.2 g/l; Solabia), sodium carbonate (0.3 g/l; VWR), sodium pyruvate (2 g/l; Fluka), HEPES buffer (0.4 g/l; Sigma), lactalbumin peptone (2 g/l; DMV), glucose (1 g/l; Merck), American agar (2 g/l; Sobigel) and European agar (12 g/l; Roko).
The media were then poured into a Petri dish for subsequent inoculation with bacterial strains.
Eight Streptococcus agalactiae strains derived from the applicant's collection, suspended in physiological saline, were inoculated so as to give isolated colonies on each of the media. The dishes were then incubated at 37° C. for 48 hours. The colonies formed are examined visually after 18, 24 and more than 40 hours of incubation. The coloration of these colonies, the growth and also the intensity of this coloration were noted.
The results are given in table 1 below and are expressed: • in terms of growth (G) with the size being indicated in mm, • in terms of intensity (1) of coloration based on an arbitrary scale ranging from 0 to 4, 0 corresponding to an absence of activity and 4 corresponding to the presence of a very intense coloration, • in terms of color (Co) with T=turquoise, R=pink or red, Gr=green, Mg=magenta, • according to the incubation time in hours (T).

Streptococcus agalactiae [2] = assay: Number of strains detected as a function of the concentration of α-glucosidase substrate; assay type: cell-based; details: positive when I≧0.6, 8 strains
Text: The above protocol was repeated, with the exception that the concentration of enzymatic substrate was varied.
Table 2 below gives the number of strains detected (considered to be positive when I≧0.6) as a function of the concentration of substrate.

[3] = strain 0008200, 18 h incubation
[4] = strain 0008200, 24 h incubation
[5] = strain 0008200, >40 h incubation
[6] = strain 0008206, 18 h incubation
[7] = strain 0008206, 24 h incubation
[8] = strain 0008206, >40 h incubation
[9] = strain 0101060, 18 h incubation
[10] = strain 0101060, 24 h incubation
[11] = strain 0101060, >40 h incubation
[12] = strain 7611003, 18 h incubation
[13] = strain 7611003, 24 h incubation
[14] = strain 7611003, >40 h incubation
[15] = strain 7701031, 18 h incubation
[16] = strain 7701031, 24 h incubation
[17] = strain 7701031, >40 h incubation
[18] = strain 7702055, 18 h incubation
[19] = strain 7702055, 24 h incubation
[20] = strain 7702055, >40 h incubation
[21] = strain 8709013, 18 h incubation
[22] = strain 8709013, 24 h incubation
[23] = strain 8709013, >40 h incubation
[24] = strain 8904053, 18 h incubation
[25] = strain 8904053, 24 h incubation
[26] = strain 8904053, >40 h incubation
[27] = substrate 100 mg/l, incubation 24 h
[28] = substrate 100 mg/l, incubation 48 h
[29] = substrate 200 mg/l, incubation 24 h
[30] = substrate 200 mg/l, incubation 48 h
[31] = substrate 300 mg/l, incubation 24 h
[32] = substrate 300 mg/l, incubation 48 h

## 5-bromo-6-chloro-3-indolyl-α-D-glucopyranoside [Magenta-alpha-Glu]
Streptococcus agalactiae [1]; strain 0008200, 18 h
  intensity (I) of coloration: 0.5
Streptococcus agalactiae [1]; [3]
  growth (G), size: 0.5 mm
Streptococcus agalactiae [1]; strain 0008200, 24 h
  intensity (I) of coloration: 0.8
Streptococcus agalactiae [1]; [4]
  growth (G), size: 0.5 mm
Streptococcus agalactiae [1]; strain 0008200, >40 h
  intensity (I) of coloration: 3
Streptococcus agalactiae [1]; [5]
  growth (G), size: 0.5 mm
Streptococcus agalactiae [1]; strain 0008206, 18 h
  intensity (I) of coloration: 0.6
Streptococcus agalactiae [1]; [6]
  growth (G), size: 0.7 mm
Streptococcus agalactiae [1]; strain 0008206, 24 h
  intensity (I) of coloration: 0.8
Streptococcus agalactiae [1]; [7]
  growth (G), size: 0.7 mm
Streptococcus agalactiae [1]; strain 0008206, >40 h
  intensity (I) of coloration: 3
Streptococcus agalactiae [1]; [8]
  growth (G), size: 0.7 mm
Streptococcus agalactiae [1]; strain 0101060, 18 h
  intensity (I) of coloration: 2.7
Streptococcus agalactiae [1]; [9]
  growth (G), size: 0.4 mm
Streptococcus agalactiae [1]; strain 0101060, 24 h
  intensity (I) of coloration: 2.7
Streptococcus agalactiae [1]; [10]
  growth (G), size: 0.4 mm
Streptococcus agalactiae [1]; strain 0101060, >40 h
  intensity (I) of coloration: 4
Streptococcus agalactiae [1]; [11]
  growth (G), size: 0.5 mm
Streptococcus agalactiae [1]; strain 7611003, 18 h
  intensity (I) of coloration: 1
Streptococcus agalactiae [1]; [12]
  growth (G), size: 0.5 mm
Streptococcus agalactiae [1]; strain 7611003, 24 h
  intensity (I) of coloration: 2
Streptococcus agalactiae [1]; [13]
  growth (G), size: 0.7 mm
Streptococcus agalactiae [1]; strain 7611003, >40 h
  intensity (I) of coloration: 3
Streptococcus agalactiae [1]; [14]
  growth (G), size: 0.7 mm
Streptococcus agalactiae [1]; [15]
  growth (G), size: 0.5 mm
Streptococcus agalactiae [1]; [16]
  growth (G), size: 0.5 mm
Streptococcus agalactiae [1]; strain 7701031, >40 h
  intensity (I) of coloration: 2
Streptococcus agalactiae [1]; [17]
  growth (G), size: 0.8 mm
Streptococcus agalactiae [1]; strain 7702055, 18 h
  intensity (I) of coloration: 0.5
Streptococcus agalactiae [1]; [18]
  growth (G), size: 0.5 mm
Streptococcus agalactiae [1]; strain 7702055, 24 h
  intensity (I) of coloration: 0.6
Streptococcus agalactiae [1]; [19]
  growth (G), size: 0.8 mm
Streptococcus agalactiae [1]; strain 7702055, >40 h
  intensity (I) of coloration: 3
Streptococcus agalactiae [1]; [20]
  growth (G), size: 1 mm
Streptococcus agalactiae [1]; strain 8709013, 18 h
  intensity (I) of coloration: 0.5
Streptococcus agalactiae [1]; [21]
  growth (G), size: 0.4 mm
Streptococcus agalactiae [1]; strain 8709013, 24 h
  intensity (I) of coloration: 1.3
Streptococcus agalactiae [1]; [22]
  growth (G), size: 0.5 mm
Streptococcus agalactiae [1]; strain 8709013, >40 h
  intensity (I) of coloration: 2.7
Streptococcus agalactiae [1]; [23]
  growth (G), size: 0.7 mm
Streptococcus agalactiae [1]; strain 8904053, 18 h
  intensity (I) of coloration: 0.6
Streptococcus agalactiae [1]; [24]
  growth (G), size: 0.7 mm
Streptococcus agalactiae [1]; strain 8904053, 24 h
  intensity (I) of coloration: 0.6
Streptococcus agalactiae [1]; [25]
  growth (G), size: 0.7 mm
Streptococcus agalactiae [1]; strain 8904053, >40 h
  intensity (I) of coloration: 3
Streptococcus agalactiae [1]; [26]
  growth (G), size: 0.7 mm
Streptococcus agalactiae [2]; [27]
  number of strains detected: 2/8
Streptococcus agalactiae [2]; [28]
  number of strains detected: 8/8
Streptococcus agalactiae [2]; [29]
  number of strains detected: 7/8
Streptococcus agalactiae [2]; [30]
  number of strains detected: 8/8
Streptococcus agalactiae [2]; [31]
  number of strains detected: 7/8
Streptococcus agalactiae [2]; [32]
  number of strains detected: 8/8

## OC[C@H]1O[C@H](Oc2c[nH]c3cc(Cl)ccc23)[C@H](O)[C@@H](O)[C@@H]1O [Rose-alpha-Glu, 6-chloro-3-indolyl-α-D-glucopyranoside]
Streptococcus agalactiae [1]; strain 0008200, 18 h
  intensity (I) of coloration: 0.1
Streptococcus agalactiae [1]; [3]
  growth (G), size: 0.5 mm
Streptococcus agalactiae [1]; strain 0008200, 24 h
  intensity (I) of coloration: 0.3
Streptococcus agalactiae [1]; [4]
  growth (G), size: 0.5 mm
Streptococcus agalactiae [1]; strain 0008200, >40 h
  intensity (I) of coloration: 0.5
Streptococcus agalactiae [1]; [5]
  growth (G), size: 0.5 mm
Streptococcus agalactiae [1]; strain 0008206, 18 h
  intensity (I) of coloration: 0.1
Streptococcus agalactiae [1]; [6]
  growth (G), size: 0.7 mm
Streptococcus agalactiae [1]; strain 0008206, 24 h
  intensity (I) of coloration: 0.3
Streptococcus agalactiae [1]; [7]
  growth (G), size: 0.8 mm
Streptococcus agalactiae [1]; strain 0008206, >40 h
  intensity (I) of coloration: 0.8
Streptococcus agalactiae [1]; [8]
  growth (G), size: 1.2 mm
Streptococcus agalactiae [1]; strain 0101060, 18 h
  intensity (I) of coloration: 0.3
Streptococcus agalactiae [1]; [9]
  growth (G), size: 0.5 mm
Streptococcus agalactiae [1]; strain 0101060, 24 h
  intensity (I) of coloration: 0.6
Streptococcus agalactiae [1]; [10]
  growth (G), size: 0.7 mm
Streptococcus agalactiae [1]; strain 0101060, >40 h
  intensity (I) of coloration: 2.3
Streptococcus agalactiae [1]; [11]
  growth (G), size: 0.8 mm
Streptococcus agalactiae [1]; strain 7611003, 18 h
  intensity (I) of coloration: 0.3
Streptococcus agalactiae [1]; [12]
  growth (G), size: 1 mm
Streptococcus agalactiae [1]; strain 7611003, 24 h
  intensity (I) of coloration: 0.6
Streptococcus agalactiae [1]; [13]
  growth (G), size: 1.3 mm
Streptococcus agalactiae [1]; strain 7611003, >40 h
  intensity (I) of coloration: 1.3
Streptococcus agalactiae [1]; [14]
  growth (G), size: 1.7 mm
Streptococcus agalactiae [1]; [15]
  growth (G), size: 0.5 mm
Streptococcus agalactiae [1]; [16]
  growth (G), size: 0.7 mm
Streptococcus agalactiae [1]; strain 7701031, >40 h
  intensity (I) of coloration: 0.5
Streptococcus agalactiae [1]; [17]
  growth (G), size: 1.2 mm
Streptococcus agalactiae [1]; strain 7702055, 18 h
  intensity (I) of coloration: 0.1
Streptococcus agalactiae [1]; [18]
  growth (G), size: 0.7 mm
Streptococcus agalactiae [1]; strain 7702055, 24 h
  intensity (I) of coloration: 0.1
Streptococcus agalactiae [1]; [19]
  growth (G), size: 1 mm
Streptococcus agalactiae [1]; strain 7702055, >40 h
  intensity (I) of coloration: 1
Streptococcus agalactiae [1]; [20]
  growth (G), size: 1.7 mm
Streptococcus agalactiae [1]; [21]
  growth (G), size: 0.4 mm
Streptococcus agalactiae [1]; [22]
  growth (G), size: 0.5 mm
Streptococcus agalactiae [1]; strain 8709013, >40 h
  intensity (I) of coloration: 0.5
Streptococcus agalactiae [1]; [23]
  growth (G), size: 0.7 mm
Streptococcus agalactiae [1]; strain 8904053, 18 h
  intensity (I) of coloration: 0.1
Streptococcus agalactiae [1]; [24]
  growth (G), size: 0.7 mm
Streptococcus agalactiae [1]; strain 8904053, 24 h
  intensity (I) of coloration: 0.3
Streptococcus agalactiae [1]; [25]
  growth (G), size: 0.7 mm
Streptococcus agalactiae [1]; strain 8904053, >40 h
  intensity (I) of coloration: 1
Streptococcus agalactiae [1]; [26]
  growth (G), size: 0.8 mm
Streptococcus agalactiae [2]; [27]
  number of strains detected: 1/8
Streptococcus agalactiae [2]; [28]
  number of strains detected: 7/8
Streptococcus agalactiae [2]; [29]
  number of strains detected: 3/8
Streptococcus agalactiae [2]; [30]
  number of strains detected: 8/8
Streptococcus agalactiae [2]; [31]
  number of strains detected: 6/8
Streptococcus agalactiae [2]; [32]
  number of strains detected: 8/8
